# Reference: paper PMC6835510, “Magnificamide, a β-Defensin-Like Peptide from the Mucus of the Sea Anemone Heteractis magnifica, Is a Strong Inhibitor of Mammalian α-Amylases” (Marine Drugs, 2019)
# Like-named read-outs stand apart in the source and are kept apart here. Bridge positions count the residues as written; N and C are the ends. Ends that are not written are not given here.
# T1: porcine pancreatic α-amylase (PPA) (Sus scrofa, UniProt P00690)
# T1 construct: purchased Sigma Aldrich A4268
# T1 sequence (P00690 16-511): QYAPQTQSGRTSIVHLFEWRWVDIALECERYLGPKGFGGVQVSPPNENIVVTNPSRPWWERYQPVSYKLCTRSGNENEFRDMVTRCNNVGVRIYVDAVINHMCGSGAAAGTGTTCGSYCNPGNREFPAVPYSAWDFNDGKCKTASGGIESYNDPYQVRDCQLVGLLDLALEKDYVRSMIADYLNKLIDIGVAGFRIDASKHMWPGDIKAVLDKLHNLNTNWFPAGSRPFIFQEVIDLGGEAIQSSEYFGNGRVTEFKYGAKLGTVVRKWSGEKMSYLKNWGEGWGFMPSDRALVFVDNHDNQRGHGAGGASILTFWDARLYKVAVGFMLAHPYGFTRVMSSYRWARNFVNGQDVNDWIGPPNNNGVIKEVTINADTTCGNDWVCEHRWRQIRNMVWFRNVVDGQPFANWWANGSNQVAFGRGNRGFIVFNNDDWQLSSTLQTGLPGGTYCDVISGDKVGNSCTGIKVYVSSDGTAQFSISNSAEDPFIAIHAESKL
# B1: Tendamistat (HOE-467A): α-amylase inhibitor from Streptomyces tendae 4158, Mr 7958 Da (protein, UniProt P01092 31-104, looked up)
# Alpha-amylase inhibitor …: DTTVSEPAPSCVTLYQSWRYSQADNGCAQTVTVKVVYEDDTEGLCYAVAPGQITTVGDGYIGSHGHARYLARCL
# B2: Parvulustat (Z-2685): α-amylase inhibitor from Streptomyces parvullus FH-1641, Mr 8129 Da (protein)
# chain: ATGSPVAECVEYFQSWRYTDVHNGCADAVSVTVEYTHGQWAPCRVIEPGGWATFAGYGTDGNYVTGLHTCDPATPSGV
# modifications: two disulfide bridges; expected 78 aa, 8129 Da
# Key:
# [1] = tested on: human saliva α-amylases (HSA); conditions: cited from earlier work
# Source text: (§1) It covers all age groups of the population, and recently it has spread epidemiologically among children and adolescents. The blood glucose levels of diabetic patients reaches abnormally high values, which leads to serious damage to many body systems, especially nerves and blood vessels, causing heart and kidney diseases, blindness, and even the amputation of limbs. The preferred way to maintain ...
# [2] = target: porcine pancreatic α-amylase (porcine) (UniProt P00690); experiment: enzyme inhibition kinetics (Morrison tight-binding fit); 37 °C, 50 mM sodium phosphate, 100 mM sodium chloride, pH 7.0; substrate CNPG3 (1 mM with nominal 20 nM PPA; 3.3 mM with nominal 100 nM HSA); enzyme pre-incubated with inhibitor 10 min; Ki from Ki app assuming a competitive mode of inhibition; triplicate
# [3] = target: T1, porcine pancreatic α-amylase (PPA); conditions: cited from earlier work
# Source text: as §1, with “[…] Recently, as a result of the proteomic analysis of the sea anemone H. magni” for “The preferred way to maintain”
# [4] = target: human salivary α-amylase (HSA) (Homo sapiens, UniProt P0DUB6); experiment: Determination of Ki against human saliva α-amylase (Morrison); type: biochemical; conditions: pH 7, Table 5 summary, own value; 37 °C, pH 7.0, CNPG3, Morrison fit; read-out: Ki, M (HSA) (converted)
# Procedure: For a quantitative assessment of tight-binding inhibitor potency, Morrison’s method was applied. This method uses the Morrison quadratic equation (Equation (1)) for fitting inhibitor-response data and determining Ki app as a nonlinear regression parameter. (1) υ/υo=1−([E]+[I]+Kiapp)−([E]+[I]+Kiapp)^2−4[E][I]/2[E]o
# Kinetic assays were carried out at 37 °C in 50 mM sodium phosphate and 100 mM sodium chloride (pH 7.0). 2-Chloro-4-nitrophenyl-α-maltotrioside (CNPG3) (Sigma Aldrich, St. Louis, MO, USA) was used as the substrate and the optical absorption of the 2-chloro-4-nitrophenol was measured at 405 nm. Reactions were run with final [CNPG3] = 1 mM ([S]/KM = 1.41, KM = 0.71 mM), nominal [E] = 20 nM for PPA, [CNPG3] = 3.3 mM ([S]/KM = 0.97, KM = 3.4 mM), and nominal [E] = 100 nM for HSA to provide sufficient analytical signal. Inhibitor dilution schemes were optimized considering recommendations in [34].
# The enzyme was pre-incubated with the inhibitor for 10 minutes before the addition of substrate which launched the reaction. Reactions were monitored on an xMark microplate spectrophotometer (BioRad, USA) in the kinetic mode for 30 min. The initial linear steady state region provided initial rate values for each inhibitor concentration (υ), along with uninhibited rate values (υo). Measurements were run in triplicate. […]
# [5] = tested on: fungi, Gram-positive or Gram-negative bacteria; experiment: Antimicrobial screening, overall; type: cell-based; conditions: 1, 5, 10, 20 µM; listed as magnificamide
# Procedure: The antimicrobial activity of r-magnificamide was tested against Gram-positive (Staphylococcus aureus ATCC 21027 and Bacillus subtilis ATCC6633), Gram-negative bacteria (Escherichia coli VKPM B-7935 and Pseudomonas aeruginosa ATCC 27853), and the fungus Candida albicans KMM 455 by the agar dilution method. Microbial strains were taken from the American Type Culture Collection (ATCC), Russian National Collection of Industrial Microorganisms (VKPM), and Collection of Marine Microorganisms (KMM) (Pacific Institute of Bioorganic Chemistry FEB RAS). To obtain a microbial lawn, 0.1 mL of a cell suspension (0.5 × 10^8 cells/mL) was uniformly distributed on agar surface in Petri dishes (15 g/L tryptic soy broth, 2 g/L bacto yeast extract, 1 g/L glucose, and 20 g/L agar for bacteria; for fungi 10 g/L of glucose was added). Wells with a diameter of 6 mm were punched into the agar and filled with 100 µL of the peptide solution at concentrations 1, 5, 10, and 20 µM. The plates were then incubated for 18 h at 37 °C for bacteria, and at 30 °C for the fungus. Minimum inhibitory concentration was determined by measuring the clear zone of inhibition around each well. All assays were performed independently three times.
# [6] = tested on: 18 subtypes of voltage-gated potassium and voltage-gated sodium channels; experiment: Electrophysiological screening, overall; type: cell-based; conditions: 10 µM; Xenopus laevis oocytes; listed as magnificamide
# Source text: For the expression of Nav channels (mammalian rNav1.2, rNav1.4, hNav1.5, mNav1.6 and hNav1.8 channels; the insect channel BgNav1 from Blattella germanica; and the auxiliary subunits rβ1, hβ1, and TipE) and Kv channels (mammalian rKv1.1, rKv1.2, hKv1.3, rKv1.4, rKv1.5, rKv1.6, rKv2.1, hKv3.1, rKv4.2, hKv10.1, and hERG; and Drosophila Shaker’s IR) in Xenopus laevis oocytes; the linearized plasmids were transcribed using the T7 or SP6 mMESSAGE-mMACHINE transcription kit (Ambion, Carlsbad, CA, USA). The harvesting of stage V–VI oocytes from anesthetized female Xenopus laevis frog was previously described. Oocytes were injected with 50 nL of cRNA at a concentration of 1 ng/nL using a microinjector (Drummond Scientific, Broomall, PA, USA). The oocytes were incubated in a solution containing 96-mM NaCl, 2-mM KCl, 1.8-mM CaCl2, 2-mM MgCl2, and 5-mM HEPES (pH 7.4), supplemented with 50 mg/L gentamycin sulfate.
# Two-electrode voltage-clamp recordings were performed at room temperature (18–22 °C) using a Geneclamp 500 amplifier (Molecular Devices, Downingtown, PA, USA) controlled by a pClamp data acquisition system (Axon Instruments, Union City, CA, USA). Whole cell currents from oocytes were recorded 1–4 days after injection. The bath solution’s composition was 96-mM NaCl, 2-mM KCl, 1.8-mM CaCl2, 2-mM MgCl2, and 5-mM HEPES (pH 7.4). Toxins were applied directly to the bath. Resistances of both electrodes were kept between 0.8 and 1.5 MΩ. The elicited currents were sampled at 20 kHz (Nav) or 2 kHz (Kv), filtered at 2 kHz (Nav) or 0.5 kHz (Kv) using a four-pole low-pass Bessel filter. Leak subtraction was performed using a -P/4 protocol. […] For the electrophysiological analysis, a number of protocols were applied from a holding potential of −90 mV with a start-to-start interval of 0.2 Hz. Kv1.1–Kv1.6 and Shaker currents were evoked by 250-ms depolarizations to 0 mV followed by a 250 ms pulse to −50 mV from a holding potential of −90 mV. […] All data were analyzed using pClamp Clampfit 10.0 (Molecular Devices, Downingtown, PA, USA) and Origin 7.5 software (Originlab, Northampton, MA, USA).
# [7] = target: human pancreatic α-amylase (HPA); conditions: Table 5, ref [11]; cited from earlier work
# Source text: Recently, as a result of the proteomic analysis of the sea anemone H. magni ...
# [8] = due to β-sandwich fold; ref [17]; cited from earlier work
# Source text: The medicines based on proteins and peptides are poorly represented in the pharmacological market, but attract the interest of specialists due to their high selectivity and effectiveness, combined with relative safety and good tolerability. A large number of proteinaceous α-amylase inhibitors have been isolated from plants, but they are highly specific and interacted with plant α-amylases to control the breakdown of stored starch or with insect α-amylases for defense. Several very effective proteinaceous inhibitors of mammalian, but not plant or microbial α-amylases were found in bacter ...
# Chain of human salivary α-amylase (HSA) (P0DUB6 16-511): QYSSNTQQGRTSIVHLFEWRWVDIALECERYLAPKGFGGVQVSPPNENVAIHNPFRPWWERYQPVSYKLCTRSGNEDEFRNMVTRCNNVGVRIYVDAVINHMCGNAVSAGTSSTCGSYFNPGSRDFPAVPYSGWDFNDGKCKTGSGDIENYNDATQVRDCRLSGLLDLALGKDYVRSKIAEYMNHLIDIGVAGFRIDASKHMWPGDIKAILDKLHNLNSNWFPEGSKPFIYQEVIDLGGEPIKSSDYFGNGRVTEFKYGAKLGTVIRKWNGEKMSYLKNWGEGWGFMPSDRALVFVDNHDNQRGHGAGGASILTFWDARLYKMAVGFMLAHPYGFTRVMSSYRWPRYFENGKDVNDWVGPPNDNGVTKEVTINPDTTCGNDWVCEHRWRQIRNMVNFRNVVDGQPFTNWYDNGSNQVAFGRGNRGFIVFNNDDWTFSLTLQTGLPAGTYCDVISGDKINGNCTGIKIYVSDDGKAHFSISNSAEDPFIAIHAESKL
molecule,measurement,setting,value
C[C@H]1O[C@H](O[C@H]2[C@H](O)[C@@H](O)[C@@H](O[C@H]3[C@H](O)[C@@H](O)C(O)O[C@@H]3CO)O[C@@H]2CO)[C@H](O)[C@@H](O)[C@@H]1N[C@H]1C=C(CO)[C@@H](O)[C@H](O)[C@H]1O (some centres unmarked) [Acarbose],Ki,"[1]; Table 5, ref [9], read-out: Ki, M (HSA) (converted)",1300 nM
same,Ki,"[1]; ref [9], read-out: Ki against HSA",1260 nM
recombinant magnificamide (peptide),Ki,[2],0.17 nM
"Helianthamide: α-amylase inhibitor of the β-defensins family from Stichodactyla helianthus (44 aa, 4716 Da); PDB ID 4XON (ESGNSCYIYHGVSGICKASCAEDEKAMAGMGVCEGHLCCYKTPW; three disulfide bridges; the text prints the PDB ID as 4XON, read as 4X0N (complex with porcine pancreatic alpha-amylase)) [reference compound]",Ki,"[3]; Table 5, ref [18]",0.1 nM
"SEGTSCYIYHGVYGICKAKCAEDMKAMAGMGVCEGDLCCYKTPW (disulfide 6-38, 16-33, 20-39) [Magnificamide]",Ki,[4],7.7 nM
same,"Antimicrobial activity, overall",[5],"No antimicrobial activity against Gram-positive, Gram-negative bacteria, or fungi was observed"
same,"Ion channel modulating activity, overall",[6],found no activity
Montbretin A,Ki,[7],8.1 nM
B1,immunogenicity,[8],high immunogenicity
same,Ki,"[3]; Table 5, ref [13]",0.009 nM
B2,Ki,"[3]; Table 5, ref [16]",0.028 nM
